The values below come from PubChem BioAssay (NCI).

Some test systems named below: ACHN renal; EKVX NSCLC; K-562 leukemia; M14 melanoma; NCI-H460 lung; SNB-75 CNS; BT-549 breast; SK-MEL-2 melanoma; U251 CNS; MCF7 breast.
Assay in all cases: growth of human tumour cells (NCI), 48 h

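Cultured in 96-well plates, cells were exposed to test compound for 48 hours across five concentrations. GI50 is the concentration that inhibits growth by half. TGI: concentration producing complete growth inhibition.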

Turning to `COc1ccc(-c2ccc(-c3ccc(C(=N)N)nc3)s2)cc1`, the GI50 is 1.84 µM in the experiment on ACHN renal; 1.7 µM in the experiment on EKVX NSCLC; 1.09 µM with K-562 leukemia; 1.8 µM in the experiment on M14 melanoma; 0.524 µM with NCI-H460 lung; 1.55 µM in the experiment with SNB-75 CNS. For the same molecule, the TGI is 3.24 µM in the experiment with ACHN renal; 3.14 µM in the experiment with EKVX NSCLC; 3.53 µM with K-562 leukemia; 3.35 µM with M14 melanoma; 1.82 µM with NCI-H460 lung; 2.88 µM with SNB-75 CNS.
Regarding `COc1ccc2c(c1)CC[C@@H]1[C@@H]2CC[C@]2(C)C(=O)C3(CCCCC3)C[C@@H]12`, the GI50 with ACHN renal, in the experiment with BT-549 breast, in the experiment with EKVX NSCLC, in the experiment on K-562 leukemia, with M14 melanoma and in the experiment on SK-MEL-2 melanoma was over 100 µM in each case. For the same molecule, the GI50 in the experiment on SNB-75 CNS and in the experiment with U251 CNS was over 100 µM each time. The TGI with ACHN renal, in the experiment with BT-549 breast, in the experiment on EKVX NSCLC, in the experiment on K-562 leukemia, with M14 melanoma and with SK-MEL-2 melanoma was over 100 µM in each case. In addition, the TGI with SNB-75 CNS and in the experiment with U251 CNS was over 100 µM in each case.
Regarding `N#CC(C#N)=CN1CCN(C(=O)c2ccco2)C1=S`, the GI50 in the experiment with ACHN renal is 9.4 µM; with BT-549 breast, 6.85 µM; in the experiment on EKVX NSCLC, 11.9 µM; with K-562 leukemia, 6.57 µM; in the experiment on MCF7 breast, 3.45 µM; with NCI-H460 lung it was 3.29 µM. In addition, the GI50 in the experiment with SK-MEL-2 melanoma is 4.28 µM; with SNB-75 CNS, 40.6 µM; in the experiment on U251 CNS, 6.54 µM. Further, the TGI is 50.5 µM in the experiment with ACHN renal; 54.6 µM in the experiment on BT-549 breast; 71.5 µM with EKVX NSCLC; over 100 µM with K-562 leukemia; 28.4 µM in the experiment on MCF7 breast; over 100 µM in the experiment with NCI-H460 lung. The values for the TGI with SK-MEL-2 melanoma, in the experiment on SNB-75 CNS and in the experiment on U251 CNS were 12.8 µM, over 100 µM and over 100 µM, respectively.
`O=C(O)C(=C\c1ccc2c(c1)OCO2)/C(=C/c1ccc2c(c1)OCO2)C(=O)O`: the TGI in the experiment on BT-549 breast, with K-562 leukemia, with M14 melanoma, in the experiment with MCF7 breast, in the experiment with NCI-H460 lung and in the experiment with SK-MEL-2 melanoma was over 100 µM throughout. In addition, the TGI with SNB-75 CNS and in the experiment on U251 CNS was over 100 µM each time.
With `Cc1c(C#N)c2nnn(C)c(=O)n2c1-c1ccccc1`, the TGI in the experiment on ACHN renal, in the experiment with BT-549 breast, with EKVX NSCLC, with M14 melanoma, with MCF7 breast and in the experiment on NCI-H460 lung was over 100 µM in each case. For the same molecule, the TGI in the experiment on SK-MEL-2 melanoma, in the experiment with SNB-75 CNS and in the experiment on U251 CNS was over 100 µM in each case.
